Test results published in PubChem BioAssay AID248 (DTP/NCI, 2004).
Where “and” joins values, the source holds several entries; their conditions need not be identical. Identical values can stand only once. Inconclusive results and toxic doses are left out. Rule as the data show it: active = T/C of 150% or more; inactive = T/C below 125%.

Tested on: L1210 leukemia ip in BDF1 mice, survival T/C
Experiment: NCI In Vivo Anticancer Drug Screen. Data for tumor model L1210 Leukemia (intraperitoneal) in B6D2F1 (BDF1) mice
Conditions: endpoint: mean survival time, higher = longer survival
How it was run: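 Value reflects the ratio of survival in compound-treated mice to survival in vehicle-treated controls, with both groups carrying the same transplanted tumor.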

[1] = dose: 50.0 mg/kg/injection, schedule: Q01DX009 (ip), vehicle: Klucel (hydroxypropylcellulose) (HPC)
[2] = dose: 100.0 mg/kg/injection, schedule: Q01DX009 (ip), vehicle: Klucel (hydroxypropylcellulose) (HPC)
[3] = dose: 100.0 mg/kg/injection, schedule: Q01DX009 (ip), vehicle: saline with Tween-80
[4] = dose: 200.0 mg/kg/injection, schedule: Q01DX009 (ip), vehicle: saline with Tween-80
[5] = dose: 400.0 mg/kg/injection, schedule: Q01DX009 (ip), vehicle: saline with Tween-80
[6] = dose: 50.0 mg/kg/injection, schedule: Q04DX003 (ip), vehicle: saline with Tween-80
[7] = dose: 200.0 mg/kg/injection, schedule: Q04DX003 (ip), vehicle: saline with Tween-80
[8] = dose: 100.0 mg/kg/injection, schedule: Q04DX002 (ip), vehicle: saline with Tween-80
[9] = dose: 200.0 mg/kg/injection, schedule: Q04DX002 (ip), vehicle: saline with Tween-80
[10] = dose: 100.0 mg/kg/injection, schedule: Q04DX003 (ip), vehicle: saline
[11] = dose: 200.0 mg/kg/injection, schedule: Q04DX003 (ip), vehicle: saline
[12] = dose: 100.0 mg/kg/injection, schedule: Q04DX003 (ip), vehicle: saline with Tween-80
[13] = dose: 100.0 mg/kg/injection, schedule: Q04DX003 (ip), vehicle: Klucel (hydroxypropylcellulose) (HPC)
[14] = dose: 200.0 mg/kg/injection, schedule: Q01DX009 (ip), vehicle: Klucel (hydroxypropylcellulose) (HPC)
[15] = dose: 200.0 mg/kg/injection, schedule: Q04DX003 (ip), vehicle: Klucel (hydroxypropylcellulose) (HPC)
[16] = dose: 400.0 mg/kg/injection, schedule: Q01DX009 (ip), vehicle: Klucel (hydroxypropylcellulose) (HPC)
[17] = dose: 400.0 mg/kg/injection, schedule: Q04DX003 (ip), vehicle: Klucel (hydroxypropylcellulose) (HPC)

Measured: T/C

NC(Cc1cnc(N=Nc2ccc(N=Nc3ncc(CC(N)C(=O)O)[nH]3)cc2)[nH]1)C(=O)O (stereo unspecified)
inactive: [1] 89 % of control | [2] 89 % of control

COC(=O)c1cc(NC(=O)Nc2cccc(C(F)(F)F)c2)cc(C(=O)OC)c1
inactive: [3] 100 % of control | [4] 92 % of control | [5] 96 % of control

CCCCOC1NC(=O)NC(=O)C1=[N+]=[N-] (stereo unspecified)
inactive: [6] 98 % of control | [7] 102 % of control

Oc1c(Br)cc(F)cc1Br
inactive: [8] 98 % of control | [9] 94 % of control

N/N=C(\NN)c1ccccc1
inactive: [3] 92 % of control | [4] 91 % of control | [5] 86 % of control

COCCOC(=O)Cc1cccc2ccccc12
inactive: dose: 222.0 mg/kg/injection, schedule: Q01DX Z (ip), vehicle: saline 90 % of control | dose: 333.0 mg/kg/injection, schedule: Q01DX Z (ip), vehicle: saline 100 % of control | dose: 500.0 mg/kg/injection, schedule: Q01DX Z (ip), vehicle: saline 110 % of control

CCC[N+](C)(C)CCCOC(=O)C1C2CC3OC(=O)C1C3C2 (stereo unspecified)
inactive: dose: 12.5 mg/kg/injection, schedule: Q04DX003 (ip), vehicle: saline 106 % of control | dose: 25.0 mg/kg/injection, schedule: Q04DX003 (ip), vehicle: saline 100 % of control | dose: 50.0 mg/kg/injection, schedule: Q04DX003 (ip), vehicle: saline 100 % of control | [10] 97 % of control | [11] 91 % of control

CCOC(=O)COc1ccc(N=NN(C)c2ccccc2)cc1
inactive: dose: 111.0 mg/kg/injection, schedule: Q01DX Z (ip), vehicle: carboxymethylcellulose (CMC) 102 % of control | dose: 166.0 mg/kg/injection, schedule: Q01DX Z (ip), vehicle: carboxymethylcellulose (CMC) 104 % of control | dose: 250.0 mg/kg/injection, schedule: Q01DX Z (ip), vehicle: carboxymethylcellulose (CMC) 113 % of control

CCOCc1nc2nc(Cl)c(Cl)nc2[nH]1
inactive: dose: 25.0 mg/kg/injection, schedule: Q04DX003 (ip), vehicle: saline with Tween-80 97 % of control | dose: 50.0 mg/kg/injection, schedule: Q01DX009 (ip), vehicle: saline with Tween-80 106 % of control | [6] 97 % of control | [3] 116 % of control | [12] 97 % of control | [4] 87 % of control | [7] 95 % of control and 97 % of control

O=C1c2ccccc2C(=O)c2c(Nc3ccc(CCO)cc3)ccc(O)c21
inactive: [2] 103 % of control | [13] 102 % of control | [14] 97 % of control | [15] 100 % of control | [16] 101 % of control | [17] 102 % of control

O=C1C2CC3C(CC2C(=O)[N]1[Sn]([c]1ccccc1)([c]1ccccc1)[c]1ccccc1)C1(Cl)C(Cl)=C(Cl)C3(Cl)C1(Cl)Cl (stereo unspecified)
inactive: dose: 10.0 mg/kg/injection, schedule: Q01DX001 (ip), vehicle: carboxymethylcellulose (CMC) 98 % of control | dose: 20.0 mg/kg/injection, schedule: Q01DX001 (ip), vehicle: carboxymethylcellulose (CMC) 95 % of control | dose: 40.0 mg/kg/injection, schedule: Q01DX001 (ip), vehicle: carboxymethylcellulose (CMC) 101 % of control | dose: 80.0 mg/kg/injection, schedule: Q01DX001 (ip), vehicle: carboxymethylcellulose (CMC) 101 % of control

CCC(Cl)COP(=O)(CC(Cl)CC)O/C(C)=C(\C)OP(=O)(OCC(Cl)CC)OCC(Cl)CC (stereo unspecified)
inactive: dose: 25.0 mg/kg/injection, schedule: Q04DX002 (sc), vehicle: olive oil, sesame oil, peanut oil 104 % of control | dose: 50.0 mg/kg/injection, schedule: Q04DX002 (sc), vehicle: olive oil, sesame oil, peanut oil 93 % of control | dose: 100.0 mg/kg/injection, schedule: Q04DX002 (sc), vehicle: olive oil, sesame oil, peanut oil 107 % of control

c1ccc2c(c1)CNCc1ccccc1-2
inactive: dose: 25.0 mg/kg/injection, schedule: Q01DX009 (ip), vehicle: saline 92 % of control | dose: 50.0 mg/kg/injection, schedule: Q01DX009 (ip), vehicle: saline 105 % of control | dose: 100.0 mg/kg/injection, schedule: Q01DX009 (ip), vehicle: saline 96 % of control | [10] 105 % of control

COc1cc2cccc(OC)c(=O)c2c(O)c1OC
inactive: dose: 25.0 mg/kg/injection, schedule: Q01DX009 (ip), vehicle: Klucel (hydroxypropylcellulose) (HPC) 92 % of control | [1] 96 % of control | [2] 92 % of control and 106 % of control | [13] 101 % of control | [15] 92 % of control | [17] 99 % of control

CCCCOC(=O)C#CC(=O)OCCCC
inactive: dose: 6.25 mg/kg/injection, schedule: Q01DX009 (ip), vehicle: carboxymethylcellulose (CMC) 94 % of control | dose: 6.25 mg/kg/injection, schedule: Q04DX003 (ip), vehicle: carboxymethylcellulose (CMC) 100 % of control | dose: 12.5 mg/kg/injection, schedule: Q01DX009 (ip), vehicle: carboxymethylcellulose (CMC) 96 % of control | dose: 12.5 mg/kg/injection, schedule: Q04DX002 (ip), vehicle: carboxymethylcellulose (CMC) 95 % of control and 97 % of control | dose: 12.5 mg/kg/injection, schedule: Q04DX003 (ip), vehicle: carboxymethylcellulose (CMC) 97 % of control | dose: 25.0 mg/kg/injection, schedule: Q04DX002 (ip), vehicle: carboxymethylcellulose (CMC) 92 % of control and 95 % of control | dose: 25.0 mg/kg/injection, schedule: Q04DX003 (ip), vehicle: carboxymethylcellulose (CMC) 95 % of control | dose: 50.0 mg/kg/injection, schedule: Q04DX002 (ip), vehicle: carboxymethylcellulose (CMC) 90 % of control

O=C1SCCC1NP(=O)(OCc1ccccc1)OCc1ccccc1 (stereo unspecified)
inactive: dose: 100.0 mg/kg/injection, schedule: Q01DX001 (ip), vehicle: saline with Tween-80 102 % of control | dose: 200.0 mg/kg/injection, schedule: Q01DX001 (ip), vehicle: saline with Tween-80 102 % of control | dose: 400.0 mg/kg/injection, schedule: Q01DX001 (ip), vehicle: saline with Tween-80 98 % of control

CCN(CC)C(=O)Oc1ccc(C(C)=O)cc1
inactive: [8] 103 % of control | [9] 100 % of control | dose: 400.0 mg/kg/injection, schedule: Q04DX002 (ip), vehicle: saline with Tween-80 114 % of control

O=[N+]([O-])C12CCCCC1([N+](=O)[O-])CCCC2 (stereo unspecified)
inactive: [10] 103 % of control | [11] 92 % of control | dose: 400.0 mg/kg/injection, schedule: Q04DX003 (ip), vehicle: saline 108 % of control

CCCC(C)(C)N
inactive: dose: 25.0 mg/kg/injection, schedule: Q04DX002 (ip), vehicle: saline 97 % of control | dose: 50.0 mg/kg/injection, schedule: Q04DX002 (ip), vehicle: saline 90 % of control | dose: 100.0 mg/kg/injection, schedule: Q04DX002 (ip), vehicle: saline 103 % of control

CCN(CC)C(=O)Nc1cccc(O)c1
inactive: [12] 94 % of control | [7] 91 % of control | dose: 400.0 mg/kg/injection, schedule: Q04DX003 (ip), vehicle: saline with Tween-80 93 % of control

COCn1c(C(=O)c2ccc(OC)cc2)cc2ccccc21
inactive: dose: 100.0 mg/kg/injection, schedule: Q04DX002 (ip), vehicle: Klucel (hydroxypropylcellulose) (HPC) 102 % of control | dose: 200.0 mg/kg/injection, schedule: Q04DX002 (ip), vehicle: Klucel (hydroxypropylcellulose) (HPC) 95 % of control | dose: 400.0 mg/kg/injection, schedule: Q04DX002 (ip), vehicle: Klucel (hydroxypropylcellulose) (HPC) 98 % of control

Oc1ccc2ccccc2c1Sc1c(O)ccc2ccccc12
inactive: [12] 101 % of control | [7] 101 % of control

CN1CCC2(CC1)SSC1(CCN(C)CC1)S2
inactive: [10] 98 % of control | [11] 98 % of control

CCc1ccccc1NC(=O)Nc1ccc(CCO)cc1
inactive: [2] 98 % of control | [14] 105 % of control | [16] 96 % of control

COc1ccc(O)c2c1C(=O)c1ccccc1C2=O
inactive: dose: 25.0 mg/kg/injection, schedule: Q01DX009 (ip), vehicle: other 93 % of control | dose: 50.0 mg/kg/injection, schedule: Q01DX009 (ip), vehicle: other 95 % of control | dose: 100.0 mg/kg/injection, schedule: Q01DX009 (ip), vehicle: other 104 % of control | dose: 200.0 mg/kg/injection, schedule: Q01DX009 (ip), vehicle: other 102 % of control | dose: 400.0 mg/kg/injection, schedule: Q01DX009 (ip), vehicle: other 104 % of control
